The text below walks through data of PMC4727778, “Synthesis and Antifungal Evaluation of Novel N-Alkyl Tetra- and Perhydroquinoline Derivatives” (Scientia Pharmaceutica, 2014).

Structures can show the parent of a compound that is named as a salt.

Data set [1] concerns human leukemia cell line (HL 60). Briefly: MTT test (cytotoxicity). The format is cell-based. The note with it: HL 60 cell line, arithmetic average of three determinations. The procedure:
The cytotoxicity of the compounds 3a–d, 5a–d, and 8b was determined in an MTT test against a human leukemia cell line (HL 60).

Data set [2] deals with Hyphopichia burtonii (DSMZ-Nr. 70663). Briefly: Agar diffusion assay. The format is cell-based. As to conditions: H. burtonii, GI = growth inhibition, read-out: diameter of zones of total inhibition. The procedure: (§1) The resulting compounds and known compounds, 1-undecylpiperidine (7) and 1-decylpiperazine (8a), as well as 1-methyl-4-undecylpiperazine (8b) (prepared in the same way), were tested in an agar diffusion assay against Gram-positive (Staphylococcus equorum (DSMZ-Nr. 20675), Streptococcus entericus (DSZM-Nr. 14446)) and Gram-negative bacteria (Escherichia coli (DSMZ-Nr. 426), Pseudomonas marginalis (DSMZ-Nr. 7527)), as well as the fungi Yarrowia lipolytica (DSMZ-Nr. 1345), Candida glabrata (DSMZ-Nr.11226), Aspergillus niger (DSMZ-Nr. 1988), and Hyphopichia burtonii (DSMZ-Nr. 70663) (Table 1).

The subject of data set [3] is Escherichia coli (DSMZ-Nr. 426). Briefly: Agar diffusion assay. In kind it is cell-based. As to conditions: E. coli, GI = growth inhibition, read-out: diameter of zones of total inhibition. Here is the method:
as §1

Data set [4] has as its system Staphylococcus equorum (DSMZ-Nr. 20675). Briefly: Agar diffusion assay. The format is cell-based. The note with it: read-out: diameter of zones of total inhibition. Here is the method:
as §1

Data set [5] deals with Streptococcus entericus (DSZM-Nr. 14446). Briefly: Agar diffusion assay. As to conditions: S. entericus, GI = growth inhibition, read-out: diameter of zones of total inhibition. In kind it is cell-based. Here is the method:
as §1

The test system of data set [6] is Yarrowia lipolytica (DSMZ-Nr. 1345). Briefly: Agar diffusion assay. As to conditions: Y. lipolytica, GI = growth inhibition, read-out: diameter of zones of total inhibition. In kind it is cell-based. The procedure:
as §1

Data set [7] deals with Pseudomonas marginalis (DSMZ-Nr. 7527). Briefly: Agar diffusion assay. The format is cell-based. The note with it: P. marginalis, GI = growth inhibition, read-out: diameter of zones of total inhibition. The procedure: as §1
Data set [8] deals with Aspergillus niger (DSMZ-Nr. 1988). Briefly: Agar diffusion assay. As to conditions: A. niger, GI = growth inhibition, read-out: diameter of zones of total inhibition. In kind it is cell-based. The procedure:
as §1

Data set [9] has as its system Candida glabrata (DSMZ-Nr.11226). Briefly: Agar diffusion assay. In kind it is cell-based. The note with it: Nakaseomyces glabratus, C. glabrata, GI = growth inhibition, read-out: diameter of zones of total inhibition. Here is the method:
as §1

`CCCCCCCCCCCCN1CCCc2ccccc21.Cl` [Compound 3d, 1-Dodecyl-1,2,3,4-tetrahydroquinoline hydrochloride]: the melting point is 49 °C. For the same molecule, in [1], 15 µM corresponded to half-maximal inhibition (IC50).

`CCCCCCCCCN1CCC[C@@H]2CCCC[C@H]21` (racemic) (as salt: hydrochloride) [Compound 5a, (±)-trans-1-Nonyldecahydroquinoline hydrochloride] showed a melting point of 130 °C.

Regarding `CCCCCCCCCCN1CCCc2ccccc21` [Compound 2b, 1-Decyl-1,2,3,4-tetrahydroquinoline], the zone of inhibition at 50 µg/disc in data set [2], in data set [3], in [4], in data set [5], in [6] and in data set [7] was 0 mm each time. In addition, the zone of inhibition at 50 µg/disc in data set [8] and in [9] was 0 mm in each case.

Consider `CCCCCCCCCN1CCC[C@@H]2CCCC[C@H]21` (racemic) [Compound 4a, (±)-trans-1-Nonyldecahydroquinoline], for which the zone of inhibition at 50 µg/disc in data set [2] was found to be 12 mm; in data set [3] it was 0 mm; in data set [4], 10 mm; in [5], 20 mm; in data set [6], 15 mm; in data set [7] it was 13 mm. The zone of inhibition at 50 µg/disc in [8] was 7 mm; in data set [9] it was 14 mm.

In turn, `CCCCCCCCCCCCN1CCC[C@@H]2CCCC[C@H]21` (racemic) (as salt: hydrochloride) [Compound 5d, (±)-trans-1-Dodecyldecahydroquinoline hydrochloride] had a melting point of 113 °C.

In turn, `CCCCCCCCCCCN1CCCc2ccccc21.Cl` [Compound 3c, 1-Undecyl-1,2,3,4-tetrahydroquinoline hydrochloride] displayed a melting point of 52 °C. The IC50 in data set [1] was 16 µM.

Turning to `CCCCCCCCCCCCN1CCCc2ccccc21` [Compound 2d, 1-Dodecyl-1,2,3,4-tetrahydroquinoline], the zone of inhibition at 50 µg/disc in data set [2], in data set [3], in [4], in data set [5], in data set [6] and in [7] was 0 mm throughout. Further, the zone of inhibition at 50 µg/disc in data set [8] and in [9] was 0 mm in each case.

`CCCCCCCCCCN1CCC[C@@H]2CCCC[C@H]21` (racemic) (as salt: hydrochloride) [Compound 5b, (±)-trans-1-Decyldecahydroquinoline hydrochloride] registered a melting point of 128 °C.

In turn, `CCCCCCCCCCCN1CCC[C@@H]2CCCC[C@H]21` (racemic) (as salt: hydrochloride) [Compound 5c, (±)-trans-1-Undecyldecahydroquinoline hydrochloride] gave a melting point of 119 °C.

Consider `CN(C/C=C/C#CC(C)(C)C)Cc1cccc2ccccc12` [terbinafine, reference compound], for which the zone of inhibition at 50 µg/disc was 15 mm in data set [2], 12 mm in [6], 26 mm in data set [8] and 0 mm in data set [9].

Turning to `CCCCCCCCCN1CCCc2ccccc21` [Compound 2a, 1-Nonyl-1,2,3,4-tetrahydroquinoline], the zone of inhibition at 50 µg/disc in data set [2], in data set [3], in data set [4], in data set [5], in [6] and in [7] was 0 mm throughout. The zone of inhibition at 50 µg/disc in data set [8] and in data set [9] was 0 mm throughout.

Take `CCCCCCCCCCN1CCC[C@@H]2CCCC[C@H]21` (racemic) [Compound 4b, (±)-trans-1-Decyldecahydroquinoline]: the zone of inhibition at 50 µg/disc in data set [2] stood at 20 mm; in [3], 0 mm; in data set [4] it was 13 mm; in data set [5], 22 mm; in [6], 19 mm; in data set [7], 15 mm. In addition, the zone of inhibition at 50 µg/disc was 12 mm in data set [8] and 16 mm in data set [9].

`CCCCCCCCCCCC(=O)N1CCCc2ccccc21` [Compound 6, N-Dodecanoyl-1,2,3,4-tetrahydroquinoline] returned a melting point of 37 °C. Besides, the zone of inhibition at 50 µg/disc in [2] turned out to be 0 mm. In addition, the zone of inhibition at 50 µg/disc in data set [3] was 0 mm. Also, the zone of inhibition at 50 µg/disc in data set [4] stood at 0 mm. Besides, the zone of inhibition at 50 µg/disc in data set [5] is 0 mm. The zone of inhibition at 50 µg/disc in [6] was 0 mm. For the same molecule, in data set [7], the zone of inhibition at 50 µg/disc is 0 mm. Besides, the zone of inhibition at 50 µg/disc in data set [8] came to 0 mm. Further, in [9], the zone of inhibition at 50 µg/disc turned out to be 0 mm.

In the case of `CCCCCCCCCCCN1CCCc2ccccc21` [Compound 2c, 1-Undecyl-1,2,3,4-tetrahydroquinoline], the zone of inhibition at 50 µg/disc in [2], in data set [3], in [4], in data set [5], in data set [6] and in [7] was 0 mm throughout. Further, the zone of inhibition at 50 µg/disc in data set [8] and in data set [9] was 0 mm throughout.

Consider `CN(C)[C@@H]1C(O)=C(C(N)=O)C(=O)[C@@]2(O)C(O)=C3C(=O)c4c(O)cccc4[C@@](C)(O)[C@H]3C[C@@H]12` [tetracycline, reference compound], for which the zone of inhibition at 50 µg/disc in data set [2] came out at 0 mm; in data set [3], 26 mm; in data set [4] it was 30 mm; in data set [5], 10 mm; in [6], 0 mm; in data set [7] it was 12 mm. Moreover, the zone of inhibition at 50 µg/disc in data set [8] and in data set [9] was 0 mm throughout.

On to `CCCCCCCCCCCCN1CCC[C@@H]2CCCC[C@H]21` (racemic) [Compound 4d, (±)-trans-1-Dodecyldecahydroquinoline], for which the zone of inhibition at 50 µg/disc in [2] stood at 11 mm; in data set [3], 0 mm; in [4], 9 mm; in data set [5], 12 mm; in data set [6] it was 9 mm; in data set [7] it was 14 mm. In addition, in data set [9], the zone of inhibition at 50 µg/disc was 9 mm.

Regarding `CCCCCCCCCCCN1CCC[C@@H]2CCCC[C@H]21` (racemic) [Compound 4c, (±)-trans-1-Undecyldecahydroquinoline], the zone of inhibition at 50 µg/disc in data set [2] stood at 13 mm; in data set [3], 0 mm; in [4] it was 12 mm; in [5], 20 mm; in data set [6], 13 mm; in data set [7] it was 11 mm. For the same molecule, the zone of inhibition at 50 µg/disc was 14 mm in data set [8] and 13 mm in data set [9].

Consider `CCCCCCCCCCN1CCCc2ccccc21.Cl` [Compound 3b, 1-Decyl-1,2,3,4-tetrahydroquinoline hydrochloride], for which the melting point was 61 °C. For the same molecule, half-maximal inhibition in [1] (IC50) was put at 60 µM.
